Tested on: male C57Bl/6 or male ob/ob mice
Assay: Oral glucose tolerance test in mice
Format: in vivo
Conditions: dose of 30 mg kg^−1, oral
Procedure: The effects of compounds of the invention on oral glucose (Glc) tolerance were evaluated in male C57Bl/6 or male ob/ob mice. Food was withdrawn 5 h before administration of Glc and remained withdrawn throughout the study. Mice had free access to water during the study. A cut was made to the animals' tails, then blood (20 μL) was removed for measurement of basal Glc levels 45 min before administration of the Glc load. Then, the mice were weighed and dosed orally with test compound or vehicle (20% aqueous hydroxypropyl-β-cyclodextrin or 25% aqueous Gelucire 44/14) 30 min before the removal of an additional blood sample (20 μL) and treatment with the Glc load (2-5 g kg^−1 p.o.). Blood samples (20 μL) were then taken 25, 50, 80, 120, and 180 min after Glc administration. The 20 μL blood samples for measurement of Glc levels were taken from the cut tip of the tail into disposable micro-pipettes (Dade Diagnostics Inc., Puerto Rico) and the sample added to 480 μL of haemolysis reagent. Duplicate 20 μL aliquots of the diluted haemolysed blood were then added to 180 μL of Trinders glucose reagent (Sigma enzymatic (Trinder) colorimetric method) in a 96-well assay plate. After mixing, the samples were left at room temperature for 30 min before being read against Glc standards (Sigma glucose/urea nitrogen combined standard set).

CC(C)OC(=O)N1CCC(O[C@H](C)c2nc(-c3cnc(N4C[C@H](c5cc(F)ccc5F)[C@@H](N)C4)nc3)no2)CC1.Cc1ccc(S(=O)(=O)O)cc1 [Example 18, 4-[(R)-1-(3-{2-[(3R,4S)-3-Amino-4-(2,5-difluorophenyl)pyrrolidin-1-yl]pyrimidin-5-yl}-[1,2,4]oxadiazol-5-yl)ethoxy]piperidine-1-carboxylic acid isopropyl ester p-toluenesulfonic acid salt]
reduction in the Glc excursion: > 40%
